Results as given in patent US8642770B2, “Indole derivative” (Takeda Pharmaceutical Company Limited, priority 2010, dated 2014).

| melting point [°C] | Compound |
| --- | --- |
| 124 | Cc1c(NC(=O)c2ccc(OC[C@@H]3CCCO3)cc2F)ccc2c1cc(CN[C@H]1CC[C@](C)(O)CC1)n2C [Example 59, 2-fluoro-N-(2-{[(trans-4-hydroxy-4-methylcyclohexyl)amino]methyl}-1,4-dimethyl-1H-indol-5-yl)-4-[(2S)-tetrahydrofuran-2-ylmethoxy]benzamide] |
| 104 to 105 | Cc1c(NC(=O)c2ccc(OC[C@@H]3CCCO3)cc2F)ccc2c1cc(CNCC(C)C)n2C [Example 61, N-(1,4-dimethyl-2-{[(2-methylpropyl)amino]methyl}-1H-indol-5-yl)-2-fluoro-4-[(2S)-tetrahydrofuran-2-ylmethoxy]benzamide] |
| 149 | Cc1c(NC(=O)c2ccc(OC[C@@H]3CCCO3)cc2F)ccc2c1cc(CNCC1CCOCC1)n2C [Example 62, N-(1,4-dimethyl-2-{[(tetrahydro-2H-pyran-4-ylmethyl)amino]methyl}-1H-indol-5-yl)-2-fluoro-4-[(2S)-tetrahydrofuran-2-ylmethoxy]benzamide] |
| 176 to 177 | Cc1c(NC(=O)c2ccc(OCC3CC3)cc2)ccc2cc(CNCC(C)C)[nH]c12 [Example 64, 4-(cyclopropylmethoxy)-N-(7-methyl-2-{[(2-methylpropyl)amino]methyl}-1H-indol-6-yl)benzamide] |
| 199 | Cc1c(NC(=O)c2ccc(OCC3CC3)cc2)ccc2cc(CNCC(C)(C)C)[nH]c12 [Example 65, 4-(cyclopropylmethoxy)-N-(2-{[(2,2-dimethylpropyl)amino]methyl}-7-methyl-1H-indol-6-yl)benzamide] |
| 167 to 168 | Cc1c(NC(=O)c2ccc(OCC3CC3)cc2)ccc2cc(CNCC3CCOCC3)[nH]c12 [Example 66, 4-(cyclopropylmethoxy)-N-(7-methyl-2-{[(tetrahydro-2H-pyran-4-ylmethyl)amino]methyl}-1H-indol-6-yl)benzamide] |
| 195 | Cc1c(NC(=O)c2ccc(OCC3CC3)cc2)ccc2cc(CN3CCC(C)(O)CC3)[nH]c12 [Example 68, 4-(cyclopropylmethoxy)-N-{2-[(4-hydroxy-4-methylpiperidin-1-yl)methyl]-7-methyl-1H-indol-6-yl}benzamide] |
| 168 | Cc1c(NC(=O)c2ccc(OC[C@@H]3CCCO3)cc2)ccc2cc(CNCC(C)(C)C)[nH]c12 [Example 69, N-(2-{[(2,2-dimethylpropyl)amino]methyl}-7-methyl-1H-indol-6-yl)-4-[(2S)-tetrahydrofuran-2-ylmethoxy]benzamide] |
| 159 | Cc1c(NC(=O)c2ccc(OC[C@@H]3CCCO3)cc2)ccc2cc(CNCC(C)C)[nH]c12 [Example 72, N-(7-methyl-2-{[(2-methylpropyl)amino]methyl}-1H-indol-6-yl)-4-[(2S)-tetrahydrofuran-2-ylmethoxy]benzamide] |
| 159 to 163 | Cc1c(NC(=O)c2ccc(OC[C@@H]3CCCO3)cc2)ccc2cc(CNC3CCCC3)[nH]c12 [Example 73, N-{2-[(cyclopentylamino)methyl]-7-methyl-1H-indol-6-yl}-4-[(2S)-tetrahydrofuran-2-ylmethoxy]benzamide] |
| 148 to 149 | Cc1c(NC(=O)c2ccc(OC[C@@H]3CCCO3)cc2F)ccc2cc(CNCC(C)(C)O)[nH]c12 [Example 76, 2-fluoro-N-(2-{[(2-hydroxy-2-methylpropyl)amino]methyl}-7-methyl-1H-indol-6-yl)-4-[(2S)-tetrahydrofuran-2-ylmethoxy]benzamide] |
| 152 to 153 | Cc1c(NC(=O)c2ccc(OC[C@@H]3CCCO3)cc2F)ccc2cc(CN[C@H]3CC[C@](C)(O)CC3)[nH]c12 [Example 77, 2-fluoro-N-(2-{[(trans-4-hydroxy-4-methylcyclohexyl)amino]methyl}-7-methyl-1H-indol-6-yl)-4-[(2S)-tetrahydrofuran-2-ylmethoxy]benzamide] |
| 167 | Cc1c(NC(=O)c2ccc(OCC3CC3)cc2)ccc2cc(CN[C@H]3CC[C@](C)(O)CC3)n(C)c12 [Example 79, 4-(cyclopropylmethoxy)-N-(2-{[(trans-4-hydroxy-4-methylcyclohexyl)amino]methyl}-1,7-dimethyl-1H-indol-6-yl)benzamide] |
| 152 to 155 | Cc1c(NC(=O)c2ccc(OCC3CC3)cc2)ccc2cc(CN3CCC(C)(O)CC3)n(C)c12 [Example 80, 4-(cyclopropylmethoxy)-N-{2-[(4-hydroxy-4-methylpiperidin-1-yl)methyl]-1,7-dimethyl-1H-indol-6-yl}benzamide] |
| 201 | Cc1c(NC(=O)c2ccc(OC[C@@H]3CCCO3)cc2)ccc2cc(CNCC(C)(C)C)n(C)c12 [Example 81, N-(2-{[(2,2-dimethylpropyl)amino]methyl}-1,7-dimethyl-1H-indol-6-yl)-4-[(2S)-tetrahydrofuran-2-ylmethoxy]benzamide] |
| 197 to 200 | Cc1c(NC(=O)c2ccc(OC[C@@H]3CCCO3)cc2)ccc2cc(CNCC(C)(C)O)n(C)c12 [Example 82, N-(2-{[(2-hydroxy-2-methylpropyl)amino]methyl}-1,7-dimethyl-1H-indol-6-yl)-4-[(2S)-tetrahydrofuran-2-ylmethoxy]benzamide] |

| melting point [°C] | Compound |
| --- | --- |
| 183 | Cc1c(NC(=O)c2ccc(OC[C@@H]3CCCO3)cc2)ccc2cc(CNCC(C)C)n(C)c12 [Example 85, N-(1,7-dimethyl-2-{[(2-methylpropyl)amino]methyl}-1H-indol-6-yl)-4-[(2S)-tetrahydrofuran-2-ylmethoxy]benzamide] |
| 140 to 141 | Cc1c(NC(=O)c2ccc(OC[C@@H]3CCCO3)cc2)ccc2cc(CN3CCC(C)(O)CC3)n(C)c12 [Example 87, N-{2-[(4-hydroxy-4-methylpiperidin-1-yl)methyl]-1,7-dimethyl-1H-indol-6-yl}-4-[(2S)-tetrahydrofuran-2-ylmethoxy]benzamide] |
| 132 to 133 | Cc1c(NC(=O)c2ccc(OC[C@@H]3CCCO3)cc2F)ccc2cc(CNCC(C)(C)O)n(C)c12 [Example 89, 2-fluoro-N-(2-{[(2-hydroxy-2-methylpropyl)amino]methyl}-1,7-dimethyl-1H-indol-6-yl)-4-[(2S)-tetrahydrofuran-2-ylmethoxy]benzamide] |
| 186 | Cc1c(NC(=O)c2ccc(C#CC3(O)CC3)cc2)ccc2cc(CNCC(C)C)n(C)c12 [Example 90, N-(1,7-dimethyl-2-{[(2-methylpropyl)amino]methyl}-1H-indol-6-yl)-4-[(1-hydroxycyclopropyl)ethynyl]benzamide] |
| 182 to 183 | Cc1c(NC(=O)c2ccc(C#CC3(O)CC3)cc2)ccc2cc(CNCC(C)(C)C)n(C)c12 [Example 91, N-(2-{[(2,2-dimethylpropyl)amino]methyl}-1,7-dimethyl-1H-indol-6-yl)-4-[(1-hydroxycyclopropyl)ethynyl]benzamide] |
| 222 to 223 | Cc1c(NC(=O)c2ccc(C#CC3(O)CCC3)cc2)ccc2cc(CNCC(C)C)n(C)c12 [Example 92, 4-[(1-hydroxycyclobutyl)ethynyl]-N-(2-{[(2-methylpropyl)amino]methyl}-1,7-dimethyl-1H-indol-6-yl)benzamide] |
| 232 to 233 | Cc1c(NC(=O)c2ccc(C#CC3(O)CCC3)cc2)ccc2cc(CNCC(C)(C)C)n(C)c12 [Example 93, N-(2-{[(2,2-dimethylpropyl)amino]methyl}-1,7-dimethyl-1H-indol-6-yl)-4-[(1-hydroxycyclobutyl)ethynyl]benzamide] |
| 202 to 204 | Cc1c(NC(=O)c2ccc(C#CC3(O)CCC3)cc2)ccc2cc(CNCC3CCOCC3)n(C)c12 [Example 94, N-(1,7-dimethyl-2-{[(tetrahydro-2H-pyran-4-ylmethyl)amino]methyl}-1H-indol-6-yl)-4-[(1-hydroxycyclobutyl)ethynyl]benzamide] |
| 118 to 119 | Cc1c(CNCC(C)C)[nH]c2c(C)c(NC(=O)c3ccc(OC[C@@H]4CCCO4)cc3)ccc12 [Example 96, N-(2-{[(2-methylpropyl)amino]methyl}-3,7-dimethyl-1H-indol-6-yl)-4-[(2S)-tetrahydrofuran-2-ylmethoxy]benzamide] |
| 184 to 185 | Cc1c(CNCC2CCOCC2)[nH]c2c(C)c(NC(=O)c3ccc(OC[C@@H]4CCCO4)cc3)ccc12 [Example 97, N-(3,7-dimethyl-2-{[(tetrahydro-2H-pyran-4-ylmethyl)amino]methyl}-1H-indol-6-yl)-4-[(2S)-tetrahydrofuran-2-ylmethoxy]benzamide] |
| 178 to 179 | Cc1c(CNCC(C)(C)C)[nH]c2c(C)c(NC(=O)c3ccc(OC[C@@H]4CCCO4)cc3)ccc12 [Example 98, N-(2-{[(2,2-dimethylpropyl)amino]methyl}-3,7-dimethyl-1H-indol-6-yl)-4-[(2S)-tetrahydrofuran-2-ylmethoxy]benzamide] |
| 134 to 135 | Cc1c(CN[C@H]2CC[C@](C)(O)CC2)[nH]c2c(C)c(NC(=O)c3ccc(OC[C@@H]4CCCO4)cc3)ccc12 [Example 99, N-(2-{[(trans-4-hydroxy-4-methylcyclohexyl)amino]methyl}-3,7-dimethyl-1H-indol-6-yl)-4-[(2S)-tetrahydrofuran-2-ylmethoxy]benzamide] |
| 107 to 109 | Cc1c(CNC2CCCC2)[nH]c2c(C)c(NC(=O)c3ccc(OC[C@@H]4CCCO4)cc3)ccc12 [Example 100, N-{2-[(cyclopentylamino)methyl]-3,7-dimethyl-1H-indol-6-yl}-4-[(2S)-tetrahydrofuran-2-ylmethoxy]benzamide] |
| 151 to 152 | Cc1c(CNCC(C)(C)O)[nH]c2c(C)c(NC(=O)c3ccc(OC[C@@H]4CCCO4)cc3F)ccc12 [Example 101, 2-fluoro-N-(2-{[(2-hydroxy-2-methylpropyl)amino]methyl}-3,7-dimethyl-1H-indol-6-yl)-4-[(2S)-tetrahydrofuran-2-ylmethoxy]benzamide] |
| 177 to 178 | Cc1c(CN[C@H]2CC[C@](C)(O)CC2)[nH]c2c(C)c(NC(=O)c3ccc(OC[C@@H]4CCCO4)cc3F)ccc12 [Example 102, 2-fluoro-N-(2-{[(trans-4-hydroxy-4-methylcyclohexyl)amino]methyl}-3,7-dimethyl-1H-indol-6-yl)-4-[(2S)-tetrahydrofuran-2-ylmethoxy]benzamide] |
